Test results as given in patent US20120277409A1, “METAL-POLYSACCHARIDE CONJUGATES: COMPOSITIONS, SYNTHESIS AND METHODS FOR CANCER THERAPY” (priority 2007, published 2012).
“Also recorded” adds a separate entry of the source. Where two headings read alike, the source gives them in different places.

Legend:
[1] = system: breast cancer cells (13762NF) tumor; experiment: Anticancer effect in breast tumor-bearing rat model; type: in vivo; details: for tumor volume: single dose (Pt 10 mg/kg or chondroitin only)
Description: Female Fischer 344 rats (125-175 g) were inoculated with breast cancer cells (13762NF, 10^6 cells/rat, s.c. in the hind leg). After 15-20 days and a tumor volume of […], the breast tumor-bearing rats were administered either the platinum-chondroitin (Platinum-polysaccharide) conjugate (PC) or chondroitin alone at doses of 10 mg Pt/kg (platinum (IV)-polysaccharide) or 45 mg/kg (chondroitin). Tumor volumes and body weight were recorded daily for sixty days. Tumor volumes were measured as [length (l)×width (w)×thickness (h)]/2. Loss of body weight of 15% is considered a chemical-induced toxic effect. […] After treatment with platinum-polysaccharide conjugate, tumor tissues were dissected and embedded in […]. The tumor tissue was fixed in paraffin, and stained with hematoxylin and eosin for histological examinations.

[2] = In vitro determination of relaxivity (T1, 7.0 T); type: physicochemical; details: in water, Gd 0.01-0.08 mM
Description: Solutions of Gd-EDTA-chitosan and Gd-DTPA were prepared in water at Gd concentrations of 0.01 mM, 0.02 mM, 0.04 mM and 0.08 mM. Spin lattice (T1) relaxivity was measured at 7.0 T. R1 in mM^−1s^−1 was obtained from linear last-squares determination of the slopes of 1/T1 vs [Gd] plot. R1 was calculated as 3.61 and […] for Gd-DTPA and Gd-EDTA-chitosan, respectively.

[3] = system: platinum-resistant ovarian cancer cell line 2008-c13; experiment: TUNEL assay of apoptosis; type: cell-based, human; details: 48 hours, compared at each dose, P<0.05
Text: DNA fragmentation typical of apoptosis was further determined by the TUNEL assay in three independent experiments.

[4] = system: platinum-resistant ovarian cancer cell line 2008-c13; experiment: Flow cytometry (propidium iodide) of apoptosis / sub-G1 fraction; type: cell-based, human; details: for sub-G1 fraction (hypodiploid cells): 48 hours and 72 hours of drug exposure, same doses
Description: To determine the effectiveness of platinum-polysaccharide conjugate (PC) against platinum-resistant ovarian cancer cells, 2008-c13 cells ([…]) were treated with platinum-polysaccharide conjugate (PC). The cells were trypsinized and centrifuged at 2500 rpm for 5 min. After being washed with 1×PBS two times, cells were fixed with 70% ethanol overnight, washed twice with 1×PBS, and resuspended in 1 mL of propidium iodide (PI) solution (1×10^6 cells/mL). RNase (20 μg/mL) solution was added followed by 1 mL of propydium iodide solution (PI, 50 μg/mL in PBS). Samples were incubated at 37° C. for 15 min, and PI fluorescence was analyzed using a EPIS XL analyzer.
This effect was tested by flow cytometry in the 2008.C13 cell line after 48 hours and 72 hours of drug exposure.

2008.C13 cells = experiment: Flow cytometric cell-cycle analysis (S-phase arrest); type: cell-based, human; details: 48 hours
[5] = system: p21 and cyclin A in 2008.C13 cells; experiment: p21 and cyclin A expression (Northern/Western blot); type: cell-based, human; details: 48 hours of drug exposure
Description: To elucidate the mechanism underlying S-phase arrest caused by CDDP and PC in 2008.C13 cells, the expression of p21 and cyclin A, which are important for cell-cycle regulation in the S phase, was examined in 2008.C13 cells after 48 hours of drug exposure.

[6] = system: PARP / caspase-3 cleavage in 2008-c13 cells; experiment: Western blot of cleaved PARP and cleaved caspase-3; type: cell-based, human; details: 48 hours; for cleaved PARP expression: 2008-c13 cells; for cleaved caspase-3 expression: 2008.C13 cells
Description: The effect of the platinum-polysaccharide conjugate of Example 1 on tumor cells was analyzed by treating 2008-c13 […] cells with the conjugate, then analyzing the effects on cellular proteins through a Western blot (FIG. 11).
To determine whether apoptosis is induced through a caspase-3-dependent pathway followed by the cleavage of PARP, levels of cleaved caspase-3 and PARP, which form after caspase-3 activation, were determined by Western blot analysis.

[7] = system: platinum-resistant ovarian cancer cells (2008-c13)
Description: All cells were cultured at 37° C. in a humidified atmosphere containing 5% CO2 in RPMI 1640 medium supplemented with 10% fetal bovine serum and glutamine (2 mM). 2008 or 2008.C13 cells were seeded into 96-well plates (4,000 cells/well) and maintained in RPMI 1640 medium for 24 hours. […] Controls were treated with DMSO or PBS. After cells were treated, their growth and viability were determined by incubating the cells for 1 to 2 hours at 37° C. with 20 μL of tetrazolium substrate. Absorbence was measured at 450 nm using a 96-well Synergy HT-microplate reader (Biotek, Winooski, Vt.) The rate of cell growth inhibition was expressed as a percentage as follows: […]. The experiments were repeated separately three times. Methylene tetrazolium (MTT) dye assay determined the amount of viable cells. Cellular protein content was determined by Lowry assay. The drug concentration that inhibits 50% of cell growth (IC-50) was then determined Data are expressed as the percentage differences compared with controls (OD of cells after treatment/OD of cells without treatment).

Row | Molecule | tumor volume ([1]; 24 hours) | tumor volume ([1]; 94 hrs) | R1 (spin lattice T1 relaxivity) [2] | apoptotic cells by TUNEL [3] | sub-G1 fraction (hypodiploid cells) [4] | cyclin A expression [5] | p21 expression [5] | cleaved PARP expression [6] | cleaved caspase-3 expression [6] | other results
1 | chondroitin [reference compound] | 5.2591 cm^3 | 14.3622 cm^3 | – | – | – | – | – | – | – | –
2 | O=C([O-])CN(CCN(CC(=O)[O-])CC(=O)O)CCN(CC(=O)[O-])CC(=O)O.[Gd+3] [Gd-DTPA, reference compound] | – | – | 3.61 mM⁻¹ s⁻¹ | – | – | – | – | – | – | –
3 | N.N.[Cl][Pt][Cl] [CDDP, cis-diamminedichloroplatinum (II), reference compound] | – | – | – | dose-dependent increase | dose-dependent increase | Neither p21 nor cyclin A expression was related to the extent of S-phase arrest | Neither p21 nor cyclin A expression was related to the extent of S-phase arrest | increased from 2.5 μg/mL to 20 μg/mL | expressed in a pattern similar to that of PARP | maximal S-phase arrest (2008.C13 cells; 20 μg/mL): 84.8%
4 | Cis-1,2-DACH-dichloro-Pt (IV)-aspartate-chondroitin [PC] | 5.2661 cm^3 | 0.8782 cm^3 | – | many more cells experiencing apoptosis; also recorded: much higher levels of apoptosis | more pronounced increase in the sub-G1 fraction; also recorded: substantially more sub-G1 cells than did CDDP | up-regulated after high-dose PC treatment and was maintained at a low level after low-dose PC treatment | up-regulated with maximal S-phase arrest after low-dose PC treatment, but not after high doses; also recorded: increased p21 expression | significantly increased; also recorded: cleaved PARP expression induced by high-dose (20 μg/mL) PC appeared to be lower than that induced by low-dose PC | comparable to that in the CDDP-treated group, except for the lower expression seen at 5 μg/mL | apoptotic effect by flow cytometry ([4]; 2.5 and 5 μg/mL, compared to cisplatin): significantly enhanced the apoptotic effect; effect against breast tumor growth (in words) ([1]; 10 mg Pt/kg): effective in vivo against breast tumor growth; tumor necrosis (H & E histology) ([1]; 94 hrs post-administration): Extensive necrosis; S-phase arrest (2008.C13 cells; 2.5 μg/mL): 90.3%; S-phase arrest (2008.C13 cells; 5 μg/mL): 90.1%; enhancement of tumor killing compared with cisplatin ([7]; 2.5 μg/mL, 48 hours): 5.9 times; enhancement of tumor killing compared with cisplatin ([7]; 2.5 μg/mL, 72 hours): 9.3 times; enhancement of tumor killing compared with cisplatin ([7]; 5 μg/mL, 48 hours): 4.6 times; enhancement of tumor killing compared with cisplatin ([7]; 5 μg/mL, 72 hours): 1.5 times; cell growth inhibition (in words) ([7]; low doses): significantly inhibit cell growth
5 | Gd-EDTA-chitosan | – | – | 9.59 mM⁻¹ s⁻¹ | – | – | – | – | – | – | –
